Laboratory results published in ChEMBL document CHEMBL1201862, “PubChem BioAssay data set” (2004).
Activity calls are given as the source filed them.

How the values were obtained:
[1] = target: T1, Methionyl-tRNA synthetase, putative (Trypanosoma brucei brucei, UniProt Q38C91); assay type: functional, Trypanosoma brucei brucei strain 927/4 GUTat10.1
T1 sequence (Q38C91 whole entry): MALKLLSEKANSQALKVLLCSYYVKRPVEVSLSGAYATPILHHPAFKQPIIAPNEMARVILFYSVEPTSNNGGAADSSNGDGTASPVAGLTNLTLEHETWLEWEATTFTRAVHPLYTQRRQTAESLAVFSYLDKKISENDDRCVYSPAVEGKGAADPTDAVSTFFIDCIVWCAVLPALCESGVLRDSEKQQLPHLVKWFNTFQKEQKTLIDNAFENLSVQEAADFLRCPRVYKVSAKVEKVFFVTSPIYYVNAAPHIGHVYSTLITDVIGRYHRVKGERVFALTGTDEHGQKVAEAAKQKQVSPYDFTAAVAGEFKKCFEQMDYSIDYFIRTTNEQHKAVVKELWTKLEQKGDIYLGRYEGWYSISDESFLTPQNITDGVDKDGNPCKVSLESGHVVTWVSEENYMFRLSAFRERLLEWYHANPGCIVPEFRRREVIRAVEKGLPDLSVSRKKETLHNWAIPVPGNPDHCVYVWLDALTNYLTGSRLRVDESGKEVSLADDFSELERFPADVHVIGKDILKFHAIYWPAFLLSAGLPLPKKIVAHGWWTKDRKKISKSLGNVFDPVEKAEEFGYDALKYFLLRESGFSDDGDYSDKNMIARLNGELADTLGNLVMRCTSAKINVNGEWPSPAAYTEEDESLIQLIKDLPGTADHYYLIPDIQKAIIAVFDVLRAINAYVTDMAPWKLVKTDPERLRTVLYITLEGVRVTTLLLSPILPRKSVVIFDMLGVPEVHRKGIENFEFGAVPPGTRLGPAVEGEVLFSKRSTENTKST

[2] = target: T1, Methionyl-tRNA synthetase, putative; assay type: functional, Trypanosoma brucei brucei strain 927/4 GUTat10.1; remark: listed apart in the source
[3] = Counterscreen for inhibitors of Trypanosoma brucei methionyl tRNA synthetase (MetRS): Luminescence-based cell-based high throughput dose response assay to identify compounds that are cytotoxic to Jurkat human T lymphocyte cells.; assay type: functional
[4] = target: T2, Heat shock factor protein 1 (Mus musculus, UniProt P38532); test: HSF1 potentiators in luciferase reporter cells, confirmation, cell-based, NIH3T3, luminescence, dose retest (AID 435004); assay type: functional;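 note: stress induced by proteasome inhibitor MG132 added 30 min after compound; luciferase reporter driven by HSF1 response element in NIH3T3 cells; actives raise luminescence as potentiators of the MG132 stress response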
T2 sequence (P38532 whole entry): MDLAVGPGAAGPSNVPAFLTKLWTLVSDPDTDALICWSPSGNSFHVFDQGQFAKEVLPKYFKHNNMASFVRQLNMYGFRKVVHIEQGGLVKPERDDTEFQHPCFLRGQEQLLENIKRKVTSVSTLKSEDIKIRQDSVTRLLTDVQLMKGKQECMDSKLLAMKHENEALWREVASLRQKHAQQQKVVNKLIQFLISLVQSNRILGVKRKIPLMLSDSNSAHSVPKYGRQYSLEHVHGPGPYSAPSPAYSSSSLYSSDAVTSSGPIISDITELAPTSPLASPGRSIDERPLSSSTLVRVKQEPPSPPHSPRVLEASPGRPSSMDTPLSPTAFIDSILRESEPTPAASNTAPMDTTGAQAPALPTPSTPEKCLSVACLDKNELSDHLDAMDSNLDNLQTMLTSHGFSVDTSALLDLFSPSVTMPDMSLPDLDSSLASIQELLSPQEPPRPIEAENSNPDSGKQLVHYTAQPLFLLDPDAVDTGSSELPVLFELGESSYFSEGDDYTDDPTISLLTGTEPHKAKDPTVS

[5] = target: T3, Oxysterols receptor LXR-beta (Homo sapiens, UniProt P55055); assay type: functional, cell-based;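 note: Cell-based luminescence dose-response assay of agonist activity at LXR, run as a confirmatory counterscreen to a daf-12 agonist screen; HEK293 cells with Gal4-LXR fusion and GAL4-driven luciferase reporter; agonist potency from rising luciferase signal of a Gal4-LXR reporter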
T3 sequence (P55055 whole entry): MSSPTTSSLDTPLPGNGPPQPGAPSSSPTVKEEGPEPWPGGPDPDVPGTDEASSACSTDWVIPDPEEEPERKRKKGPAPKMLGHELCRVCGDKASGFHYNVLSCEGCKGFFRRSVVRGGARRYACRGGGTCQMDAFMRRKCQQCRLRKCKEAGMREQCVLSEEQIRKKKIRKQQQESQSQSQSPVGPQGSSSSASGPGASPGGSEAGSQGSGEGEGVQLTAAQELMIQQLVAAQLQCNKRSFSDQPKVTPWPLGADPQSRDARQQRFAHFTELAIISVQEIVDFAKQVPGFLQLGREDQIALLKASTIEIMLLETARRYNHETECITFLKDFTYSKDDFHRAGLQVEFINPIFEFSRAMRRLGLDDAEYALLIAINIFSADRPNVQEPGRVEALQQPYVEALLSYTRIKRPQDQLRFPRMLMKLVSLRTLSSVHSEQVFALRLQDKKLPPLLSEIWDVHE

cells [6] = test: cells
[7] = HepG2 cell cytotoxicity, dose response, cytotoxicity control, ATP luminescence, cherry-pick, activator set 2 (AID 1053143); assay type: functional, cell-based
[8] = C. albicans growth with fluconazole, confirmation, fluorescence, retest (AID 2467); assay type: functional, cell-based
[9] = inhibitors of SNCA 5'UTR-driven reporter translation, confirmation, H4 neuroglioma cells, luminescence (AID 1988); assay type: functional, cell-based
[10] = inhibitors of intracellular T. cruzi replication, confirmation, NIH3T3 host cells, beta-gal luminescence (AID 2044); assay type: functional, cell-based;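 note: intracellular parasites grown in NIH/3T3 mouse fibroblasts as host cells; luminescent beta-galactosidase reporter signal from transgenic T. cruzi replicating inside host cells; inhibitors lower the luminescence signal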
[11] = inhibitors of firefly luciferase expression or activity, dose response, H4 neuroglioma cells, luminescence (AID 1990); assay type: functional, cell-based
[12] = NIH-3T3 fibroblast cytotoxicity, dose response, cytotoxicity control, cell-based, fluorescence, Alamar Blue, secondary assay (AID 2327); assay type: functional;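 note: NIH-3T3 mouse fibroblasts cultured with fluconazole at 8 µg/mL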
[13] = cytotoxicity toward NIH3T3 fibroblasts, dose response, counter-screen, cell-based, ATP luminescence, mouse fibroblasts (AID 2010); assay type: functional;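 note: cells exposed to compound for about 90 hours before reading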
Albumin = Albumin (Bos taurus, UniProt P02769); test: Counterscreen for inhibitors of T-cell receptor (TCR)-CD3 interaction: Fluorescence-based biochemical high throughput dose response assay to identify inhibitors of T-cell receptor (TCR)-CD3 interaction using a TAMRA-labeled BSA probe.; assay type: functional
Sequence of Albumin (P02769 whole entry): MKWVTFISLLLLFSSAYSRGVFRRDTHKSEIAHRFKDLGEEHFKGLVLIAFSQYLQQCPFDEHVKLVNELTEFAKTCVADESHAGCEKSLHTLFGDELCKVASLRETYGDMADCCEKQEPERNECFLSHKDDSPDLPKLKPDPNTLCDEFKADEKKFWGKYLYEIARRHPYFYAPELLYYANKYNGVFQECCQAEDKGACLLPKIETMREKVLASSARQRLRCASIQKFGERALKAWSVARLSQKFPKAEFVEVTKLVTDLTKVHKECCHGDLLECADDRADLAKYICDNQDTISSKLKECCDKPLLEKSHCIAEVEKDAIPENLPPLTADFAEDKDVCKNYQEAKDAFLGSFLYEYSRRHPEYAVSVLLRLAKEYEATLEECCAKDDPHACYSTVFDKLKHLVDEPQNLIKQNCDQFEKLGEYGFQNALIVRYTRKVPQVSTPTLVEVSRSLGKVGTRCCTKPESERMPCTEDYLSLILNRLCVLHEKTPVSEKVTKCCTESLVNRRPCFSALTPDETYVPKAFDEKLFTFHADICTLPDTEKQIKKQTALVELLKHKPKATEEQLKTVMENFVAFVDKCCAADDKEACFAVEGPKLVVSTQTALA

[14] = Luminescence Cell-Based Dose Response HTS to Identify Inhibitors of 5'UTR Stem-Loop Driven Prion Protein mRNA Translation in H4 Neuroglioblastoma Cells. [Related pubchem assays: 1827 (Project Summary), 1813 (Primary HTS)]; assay type: functional
H9c2 = test: cells; assay type: functional, cell-based; settings: Rattus norvegicus, H9c2, Myocardium;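 note: confirmatory concentration-response retest of ultra-high-throughput screening hits for modulation of myocardial damage; cell death induced by hydrogen peroxide oxidative stress; compound pretreatment for 60 min then peroxide exposure for 2 h; potency is for protecting the cells against peroxide damage rather than for killing them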
cells [15] = assay type: functional, cell-based
cells [16] = assay type: functional, cell-based; remark: listed apart in the source
Streptokinase A = target: T4, Streptokinase A (Streptococcus pyogenes serotype M1, UniProt P10520); test: S. pyogenes streptokinase expression inhibitors, potency, dose response, plasminogen activation absorbance, OD405 (AID 1914); assay type: functional, Streptococcus pyogenes M1 GAS;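 note: secreted streptokinase activity via plasminogen activation per viability signal from cell pellet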
T4 sequence (P10520 whole entry): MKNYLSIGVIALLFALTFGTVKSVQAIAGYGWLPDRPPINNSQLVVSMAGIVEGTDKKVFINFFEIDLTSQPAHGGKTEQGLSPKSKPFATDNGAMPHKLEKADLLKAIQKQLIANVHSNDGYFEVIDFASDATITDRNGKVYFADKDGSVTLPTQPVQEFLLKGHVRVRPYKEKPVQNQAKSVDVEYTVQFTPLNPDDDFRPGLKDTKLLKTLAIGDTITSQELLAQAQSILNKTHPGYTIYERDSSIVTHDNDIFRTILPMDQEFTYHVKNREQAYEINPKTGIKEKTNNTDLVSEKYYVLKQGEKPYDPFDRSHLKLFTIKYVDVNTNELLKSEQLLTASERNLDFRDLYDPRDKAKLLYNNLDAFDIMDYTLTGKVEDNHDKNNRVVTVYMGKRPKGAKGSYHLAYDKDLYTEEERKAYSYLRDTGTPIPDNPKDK

[17] = M. tuberculosis H37Rv growth inhibitors, H37Rv strain (AID 1626); assay type: functional
Streptococcus = test: Group A Streptococcus viability loss, dose response, counter-screen for streptokinase expression inhibitor project, luminescence, BacTiterGlo (AID 1915); assay type: functional, organism-based;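 note: potency for reduction of bacterial viability or growth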
[18] = system: Streptococcus sp. 'group A'; test: growth inhibition of control SK(-) GAS strain, dose response, counter-screen for streptokinase expression inhibitor project, luminescence, kanamycin, BacTiterGlo, confirmation (AID 1900); assay type: functional, organism-based
[19] = LGR2 antagonists, dose response, cell-based, HEK293, CRE-luciferase reporter, cherry pick, set 2 (AID 743343); assay type: functional;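 note: transfected cells were stimulated with diluted bursicon conditioned medium after compound addition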
[20] = HepG2 cell cytotoxicity, dose response, cytotoxicity control, plate reader, cherry-pick, antagonist series (AID 743416); assay type: functional, cell-based
[21] = MC4R antagonists, dose response, counter-screen for LGR2 antagonist project, cell-based, plate reader, cherry pick (AID 743444); assay type: functional;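 note: transfected HEK 293 cells stimulated with alpha-MSH peptide; potency of inhibitors of the alpha-MSH evoked signal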
[22] = HEK293 cell cytotoxicity, dose response, cytotoxicity control, plate reader, cherry-picked samples (AID 743446); assay type: functional, cell-based
[23] = A549 cell cytotoxicity, dose response, cytotoxicity control, plate reader, cherry-pick, antagonist series (AID 743412); assay type: functional, cell-based
[24] = Luminescence Cell-Based Dose Response HTS to Identify Activators of Luciferase Translation or Activity in H4 […] Cells. [Related pubchem assays: 1829 (Project Summary), 1814 (Primary HTS)]; assay type: functional
Paired box protein Pax-8 = Paired box protein Pax-8 (Homo sapiens, UniProt Q06710); test: inhibitors of PAX8-driven TPO luciferase reporter, dose response, RMG-I cells, cherry-pick (AID 687027); assay type: functional, cell-based;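 note: luciferase reporter driven by Pax8 target thyroperoxidase promoter measured by SteadyGlo luminescence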
Sequence of Paired box protein Pax-8 (Q06710 whole entry): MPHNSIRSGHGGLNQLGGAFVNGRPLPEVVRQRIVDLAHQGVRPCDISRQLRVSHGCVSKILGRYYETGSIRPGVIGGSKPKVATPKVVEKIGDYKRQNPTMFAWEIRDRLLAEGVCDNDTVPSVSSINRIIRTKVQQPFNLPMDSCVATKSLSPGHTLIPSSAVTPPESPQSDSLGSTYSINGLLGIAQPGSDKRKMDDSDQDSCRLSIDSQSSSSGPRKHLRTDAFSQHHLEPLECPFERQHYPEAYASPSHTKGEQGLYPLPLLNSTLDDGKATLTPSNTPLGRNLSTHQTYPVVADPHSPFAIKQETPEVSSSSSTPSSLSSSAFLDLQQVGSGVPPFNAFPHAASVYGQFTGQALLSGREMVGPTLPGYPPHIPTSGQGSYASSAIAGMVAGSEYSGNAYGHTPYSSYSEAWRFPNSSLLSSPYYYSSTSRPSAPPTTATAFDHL

[25] = cytotoxicity in OVCAR8 ovarian cancer cells, dose response, PAX8 project, cell-based, plate reader, dry powder samples (AID 743197); assay type: functional; settings: OVCAR-8
[26] = target: T5, Rac GTPase-activating protein 1 (Homo sapiens, UniProt Q9H0H5); test: MgcRacGAP GTPase-activating activity inhibitors, confirmation, biochemical, ADP Hunter fluorescence, primary and confirmatory (AID 624330); assay type: functional
T5 sequence (Q9H0H5 whole entry): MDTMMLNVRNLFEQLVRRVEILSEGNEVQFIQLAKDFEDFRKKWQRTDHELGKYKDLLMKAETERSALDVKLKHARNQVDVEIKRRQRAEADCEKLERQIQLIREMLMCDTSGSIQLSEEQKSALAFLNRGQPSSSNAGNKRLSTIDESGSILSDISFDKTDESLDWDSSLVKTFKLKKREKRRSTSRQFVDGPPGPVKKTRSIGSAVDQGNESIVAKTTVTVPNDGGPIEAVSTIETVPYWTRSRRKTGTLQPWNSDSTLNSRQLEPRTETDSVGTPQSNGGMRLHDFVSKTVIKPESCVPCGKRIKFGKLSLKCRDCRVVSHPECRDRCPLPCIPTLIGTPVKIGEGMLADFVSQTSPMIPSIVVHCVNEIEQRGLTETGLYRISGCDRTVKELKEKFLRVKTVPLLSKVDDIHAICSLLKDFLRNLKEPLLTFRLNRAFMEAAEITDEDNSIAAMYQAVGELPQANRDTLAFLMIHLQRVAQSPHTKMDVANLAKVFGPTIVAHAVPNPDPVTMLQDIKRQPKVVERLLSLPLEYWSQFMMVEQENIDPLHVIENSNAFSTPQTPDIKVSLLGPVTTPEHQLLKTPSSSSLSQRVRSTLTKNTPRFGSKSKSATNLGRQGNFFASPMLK

[27] = HeLa cell cytotoxicity, dose response, cytotoxicity control for MgcRacGAP inhibitor project (AID 624300); assay type: functional

SMILES: CCOC(=O)c1cccc(NC(=O)Cn2c(CC(=O)NC)nc3ccccc32)c1
- IC50 [1]: 2.05 µM (active)
- IC50 [2]: 6.01 µM (active)
- IC50 [3]: 83.3 µM (inactive)
- EC50 [4]: > 260 µM (inactive)

SMILES: Cc1sc(NC(=O)c2ccc(Cl)s2)c(C(N)=O)c1C
- EC50 [5]: > 67.5 µM (inactive)
- EC50 (cells [6]): > 67.5 µM (inactive)

SMILES: Cc1cc(C)cc(NC(=O)Nc2ccc(N3CCCCC3)cc2)c1
- AC50 [7]: 26 µM (active)

SMILES: COc1cc2ccccc2cc1C(=O)NNC(=O)c1ccccc1O
- EC50 [8]: > 38 µM (not active)
- EC50 [9]: 16.1 µM (active)
- EC50 [10]: > 60 µM (not active)
- EC50 [11]: > 60 µM (not active)
- EC50 [12]: > 150 µM (inactive)
- EC50 [13]: > 60 µM (not active)
- IC50 (Albumin): > 94.2 µM (inactive)
- EC50 [14]: 14.9 µM (active)
- IC50 (H9c2): > 79 µM (inactive)
- EC50 (cells [15]): > 350 µM (not active)
- EC50 (cells [16]): > 350 µM (not active)

SMILES: COc1ccc(-c2nnc(SC(C(=O)c3c[nH]c4ccccc34)c3ccccc3)n2N)cc1OC (centres undefined)
- EC50 (Streptokinase A): > 150 µM (not active)
- IC50 [1]: 99 µM (inactive)
- IC50 [17]: > 100 µM (active)
- IC50 [2]: 33.8 µM (inactive)
- IC50 [3]: 83.3 µM (inactive)
- EC50 (Streptococcus): 102 µM (active)
- EC50 [18]: 8.65 µM (active)

SMILES: Cc1cccc(-c2noc(-c3ccc4c(c3)OCO4)n2)c1
- AC50 [19]: 9.54 µM (active)
- AC50 [20]: > 52 µM (inactive)
- AC50 [21]: 12.1 µM (active)
- AC50 [22]: > 52 µM (inactive)
- AC50 [23]: > 52 µM (inactive)

SMILES: Cc1ccsc1C(=O)OCc1csc(-c2ccccc2)n1
- EC50 [5]: > 67.5 µM (inactive)
- EC50 (cells [6]): > 67.5 µM (inactive)

SMILES: Cn1c(=O)c(/C=C/c2ccccc2)nc2ccccc21
- EC50 [24]: 0.174 µM (active)
- EC50 [5]: > 67.6 µM (inactive)
- EC50 (cells [6]): > 67.6 µM (inactive)

SMILES: Cc1cccc(-c2ccc([C@H]3[C@@H](CO)N4CCCCN(S(=O)(=O)c5cccc(C)c5)C[C@@H]34)cc2)c1
- AC50 (Paired box protein Pax-8): 8.23 µM (active)
- AC50 [25]: > 70 µM (inactive)

SMILES: Cc1onc(-c2ccccc2)c1C(=O)NN=Cc1cc(Cl)cc(Cl)c1O
- IC50 (Albumin): > 94 µM (inactive)

SMILES: Cc1cccc(-c2ccc([C@H]3[C@@H](CO)N4CCCCN(C(=O)c5ccc6c(c5)OCO6)C[C@@H]34)cc2)c1
- AC50 [19]: 14.2 µM (active)
- AC50 [21]: 15.4 µM (active)
- AC50 [22]: 15.6 µM (active)
- AC50 [23]: 26.4 µM (active)

SMILES: Oc1ccc(/C=N/Nc2nn3cnnc3c3ccccc23)cc1
- IC50 [26]: 22.2 µM (active)
- CC50 [27]: 100 µM (active)
